Reference: patent US10364242B2, “Modulation of N-acylethanolamine-hydrolysing acid amidase (NAAA) for disease treatment” (FONDAZIONE ISTITUTO ITALIANO DI TECNOLOGIA, priority 2017, dated 2019)

Experiments:
h-NAAA [1] = target: T1, h-NAAA (Homo sapiens (Human), UniProt Q02083); test: Fluorogenic h-NAAA assay; assay type: biochemical; conditions: PAMCA substrate 2.0 μM, pH 4.5, 30 min pre-incubation
Experimental: (§1) Human recombinant proteins were obtained from HEK-293 stable overexpressing NAAA, AC and FAAH cell lines, respectively. Cells were grown in Dulbecco's modified Eagle medium (DMEM) containing 10% FBS, 1% penicillin/streptomycin, 1% glutamine and 500 μg/mL G418. To obtain membrane preparation cells were scraped off with cold phosphate-buffered saline (PBS) and collected by centrifugation (300×g, 7 min, 4° C.). Cell pellets were stored at −80° C. until protein preparation.
(§2) Preparation of enzyme-enriched lysate (h-NAAA and hAC). HEK-293 cells stably transfected with the human NAAA or human AC coding sequences were used as enzyme source. […] The suspension was finally ultracentrifuged at 105,000×g for 1 h at 4° C., supernatants were collected, protein concentration was measured and samples aliquoted and stored at −80° C. until use.
The assay was run in 96-well microplates (Black OptiPlate™-96 F; PerkinElmer, Massachusetts, USA), in a total reaction volume of 200 μL. h-NAAA protein preparation (4.0 μg) was pre-incubated for 30 min with various concentrations of test compounds or vehicle control (DMSO 5%) in 100 mM citrate/phosphate buffer (pH 4.5) containing 3.0 mM DTT, 0.1% NP40 0.1%, 0.05% BSA, 150 mM NaCl. […] Fluorescence was measured with EnVision 2014 Multilabel Reader (PerkinElmer, Massachusetts, USA) using an excitation wavelength of 355 nm and emission 460 nm. […]
Target sequence in this assay (Q02083 29-359): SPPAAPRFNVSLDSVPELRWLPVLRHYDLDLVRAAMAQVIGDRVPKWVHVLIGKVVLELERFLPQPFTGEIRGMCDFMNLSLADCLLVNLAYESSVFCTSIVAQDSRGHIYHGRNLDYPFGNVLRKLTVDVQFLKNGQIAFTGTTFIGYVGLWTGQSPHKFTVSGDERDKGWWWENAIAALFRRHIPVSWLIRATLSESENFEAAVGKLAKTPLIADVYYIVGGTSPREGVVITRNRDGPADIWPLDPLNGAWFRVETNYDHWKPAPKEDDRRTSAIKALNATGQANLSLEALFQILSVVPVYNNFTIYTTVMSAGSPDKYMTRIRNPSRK

h-AC (Acid Ceramidase) = h-AC (Acid Ceramidase) (Homo sapiens (Human), UniProt Q13510); test: Fluorogenic h-AC assay; assay type: biochemical; conditions: pH 4.5, 10 min pre-incubation
Sequence of h-AC (Acid Ceramidase) (Q13510 22-395): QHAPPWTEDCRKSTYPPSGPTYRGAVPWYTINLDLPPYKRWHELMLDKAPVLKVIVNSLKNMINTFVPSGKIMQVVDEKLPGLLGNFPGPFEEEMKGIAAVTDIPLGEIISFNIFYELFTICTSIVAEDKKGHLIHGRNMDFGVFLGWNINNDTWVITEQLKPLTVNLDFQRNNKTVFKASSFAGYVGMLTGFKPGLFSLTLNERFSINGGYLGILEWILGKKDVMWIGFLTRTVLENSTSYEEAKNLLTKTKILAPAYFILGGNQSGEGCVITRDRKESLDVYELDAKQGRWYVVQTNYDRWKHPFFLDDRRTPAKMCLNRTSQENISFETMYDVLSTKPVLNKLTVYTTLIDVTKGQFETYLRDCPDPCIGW
Experimental: as §1, §2
The assay was run in 96-well microplates (Black OptiPlate™-96 F; PerkinElmer, Massachusetts, USA) in a total reaction volume of 100 μL. h-AC protein preparation (2.0 μg) was pre-incubated for 10 min with various concentrations of test compounds or vehicle control (DMSO 5%) in 25 mM sodium acetate buffer (pH 4.5). […] Fluorescence was measured with EnVision 2014 Multilabel Reader (PerkinElmer, Massachusetts, USA) using an excitation wavelength of 355 nm and emission 460 nm. […]

[2] = target: h-FAAH1 (Fatty Acid Amide Hydrolase) (Homo sapiens (Human), UniProt O00519); test: Fluorogenic h-FAAH assay; assay type: biochemical; conditions: AMC arachidonoyl amide 800 nM, pH 7.4, 50 min pre-incubation
Sequence of h-FAAH1 (Fatty Acid Amide Hydrolase) (O00519 whole entry): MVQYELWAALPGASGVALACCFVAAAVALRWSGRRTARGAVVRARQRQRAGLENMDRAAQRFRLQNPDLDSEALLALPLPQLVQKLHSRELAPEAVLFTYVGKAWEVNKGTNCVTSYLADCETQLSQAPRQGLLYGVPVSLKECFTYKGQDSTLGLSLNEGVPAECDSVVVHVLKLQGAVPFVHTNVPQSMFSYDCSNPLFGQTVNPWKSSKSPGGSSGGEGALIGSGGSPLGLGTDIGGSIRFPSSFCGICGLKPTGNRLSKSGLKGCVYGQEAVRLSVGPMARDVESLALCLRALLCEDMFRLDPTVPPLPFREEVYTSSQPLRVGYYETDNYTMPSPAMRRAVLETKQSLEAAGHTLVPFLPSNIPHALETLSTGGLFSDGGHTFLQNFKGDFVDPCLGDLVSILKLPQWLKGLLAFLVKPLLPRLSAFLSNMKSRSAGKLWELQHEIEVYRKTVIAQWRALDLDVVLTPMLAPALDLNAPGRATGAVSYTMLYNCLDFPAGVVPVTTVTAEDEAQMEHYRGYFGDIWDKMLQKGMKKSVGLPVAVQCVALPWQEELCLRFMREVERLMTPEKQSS
Experimental: as §1
Preparation of membrane-enriched lysate (h-FAAH). […]
The fluorescent assay to measure FAAH activity was performed in 96 wells black plates: 2.5 μg of human FAAH-1 membrane preparation were pre-incubated for 50 min at 37° C., in 190 μL of assay buffer (50 mM TrisHCl pH 7.4, 0.05% Fatty acid-free BSA) with 5 μL of inhibitor or 5 μL DMSO to measure FAAH total activity. […] The reaction was carried out for 45 minutes at 37° C. and fluorescence was measured with EnVision 2014 Multilabel Reader (PerkinElmer, Massachusetts, USA) (excitation wavelength 355 nm/emission wavelength 460 nm). The concentration causing half-maximal inhibition (IC50) was determined by nonlinear regression analysis of the Log [concentration]/response curves generated with mean replicate values using a four-parameter Hill equation curve fitting with GraphPad Prism 5 (GraphPad Software Inc., CA, USA).

h-NAAA [3] = target: T1, h-NAAA; test: Dialysis test (reversibility of inhibition); assay type: biochemical
Target sequence in this assay (Q02083 29-359): as the sequence (Q02083 29-359) above

h-NAAA [4] = target: T1, h-NAAA; test: Competitive Activity Based Protein Profiling (ABPP); assay type: biochemical; conditions: 20 μM, lysosomal extracts of h-NAAA overexpressing HEK293 cells, probe ARN14686
Experimental: FIG. 1 is a picture showing the SDS-PAGE analysis resulting from the Competitive Activity Based Protein Profiling (ABPP): in summary, lysosomal extracts of h-NAAA overexpressing HEK293 cells were incubated with a vehicle (2% DMSO), ARN15393 (covalent h-NAAA inhibitor) or ARN16186, for 2 h before addition of probe ARN14686; a rhodamine fluorophore was inserted by a click chemistry. The arrow indicates NAAA;
(§3) h-NAAA was produced and purified from h-NAAA overexpressing HEK293 cell line as described (ACS Med Chem Lett 2012, 3, 422-426). The purified enzyme was incubated in activation buffer [100 mM Sodium Phosphate/Sodium Citrate Buffer, 3 mM DL-dithiothreitol (DTT), 0.1% Triton X100, pH 4.5] for 3 h at 37° C. and the enzyme activation was checked by SDS-PAGE and Coomassie blue staining.
For competitive ABPP, 50 μL of lysosomal enrichment (0.5 mg/mL) from of h-NAAA-overexpressing HEK293 cell line were incubated 2 h at 37° C. with ARN16186 or covalent inhibitor ARN15393^(*^) at a final concentration of 20 μM (DMSO 2%). At the end of this pre-incubation time, the activity based probe undec-10-ynyl-N—[(S)-2-oxoazetidin-3-yl]carbamate (ARN14686) (ACS Chem. Biol. 2015, 10, 2057-2064) was added at 20 μM for 15 min or for 3.5 h at 37° C. […] Samples (10 μL) were analysed by SDS-PAGE and gel florescence was scanned at 532 nm wavelength (Fuji Film FLA-9000 instrument).
Target sequence in this assay (Q02083 29-359): as above

h-NAAA [5] = target: T1, h-NAAA; test: Inhibitors recovery assay (LC/MS); assay type: biochemical; conditions: LC/MS recovery study, 1 μM compound, 2 h at 37° C. with h-NAAA
Experimental: FIG. 2 is a histogram resulting from the inhibitors recovering assay: ordinate: % recovery of compounds after h-NAAA incubation; ARN16186 and covalent inhibitor ARN15393 were incubated with NAAA (right bars) or buffer alone (left bars) and quantified in supernatant after protein precipitation;
as §3
Target sequence in this assay (Q02083 29-125): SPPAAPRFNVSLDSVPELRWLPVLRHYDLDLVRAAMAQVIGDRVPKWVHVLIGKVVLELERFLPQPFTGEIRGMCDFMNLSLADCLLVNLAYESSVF
Target sequence in this assay (Q02083 126-359): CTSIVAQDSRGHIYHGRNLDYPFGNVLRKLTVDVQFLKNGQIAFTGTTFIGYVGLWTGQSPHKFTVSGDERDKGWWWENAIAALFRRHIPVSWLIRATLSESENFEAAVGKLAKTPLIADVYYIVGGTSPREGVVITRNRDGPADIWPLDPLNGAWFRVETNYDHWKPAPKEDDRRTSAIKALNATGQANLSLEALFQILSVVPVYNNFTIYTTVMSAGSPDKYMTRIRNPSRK
h-NAAA (25 μL of a 2 μM solution) was incubated with ARN16186 or covalent inhibitor ARN15393 at the concentration of 1 μM in activation buffer, 2 h at 37° C. Samples were next precipitated with ten volumes of acetonitrile and centrifuged 10 min at 12000×g. The supernatants were recovered and analysed by LCMS/MS for the presence of the added compound. No-protein control samples (buffer only) were used as 100% recovery reference. Compound was detected and quantified using a Waters ACQUITY UPLC/MS TQD system consisting of a TQD (Triple Quadrupole Detector) mass spectrometer, equipped with an electrospray ionization interface. […] Compound was quantified monitoring its MRM peak area. […]

[6] = tested on: sciatic nerve chronic constriction injury (CCI) model of persistent hyperalgesia and allodynia; test: Chronic Constriction Injury (CCI) of the sciatic nerve; assay type: in vivo; conditions: mice
Experimental: Sciatic nerve ligations were performed according to Bennett and Xie (Pain. 1988, 33, 87-107). Adult male CD1 mice were anesthetized with 2-3% isoflurane, and the left sciatic nerve was exposed at mid-thigh level through a small incision and tied at two distinct sites (spaced at a 2-mm interval) with a silk thread. The wound was closed with a single muscle suture and skin clips, and dusted with streptomycin. In sham-operated animals, the nerve was exposed but not tied. All experiments were performed in a quiet room, and experimenters were blinded to the treatment protocol at the time of the test.
Heat hyperalgesia was assessed by the method of Hargreaves et al. (Pain. 1988, 32, 77-88) measuring the latency to withdraw the hind paw from a focused beam of radiant heat (thermal intensity: infrared 3.0) applied to the plantar surface in a plantar test apparatus (Ugo Basile). The cutoff time was set at 30 s.
Tactile allodynia (dynamic plantar esthesiometer; Ugo Basile) was assessed as described by La Rana et al. (Neuropharmacology 2008, 54,521-529) using the Von Frey dynamic plantar aesthesiometer (DPA). Animals were placed individually in a small testing arena (20 cm×18.5 cm×13 cm) with a wire mesh floor for 5 min. The DPA device was positioned beneath the animal, so that the filament was directly under the plantar surface of the paw to be tested. […] The DPA automatically records the force at which the paw is withdrawn and the withdrawal latency (latency and maximum force are directly related, because the device progressively increases force until withdrawal occurs). Mechanical hyperalgesia was recorded according to the Randall Sellito measurement.
ARN16186 was then studied for its ability to alleviate established chronic pain condition (therapeutic effect). The compound was tested in the sciatic nerve chronic constriction injury (CCI) model of persistent hyperalgesia and allodynia in mice, a model that has both inflammatory and neuropathic pain components. ARN16186 (0.3, 1.0, 3.0 and 10 mg kg^−1, p.o.) was administered on day 7 and day 14, after left sciatic nerve ligation, and pain readouts were measured 2 h after dosing.

[7] = single administration 0.3, 1.0, 3.0 and 10 mg kg^−1 p.o., day 7 and day 14 after ligation, 2 h after dosing, dose-dependent

CCCCc1ccc(OC2CC3CCC(C2)N3S(=O)(=O)c2c(C)n[nH]c2C)cc1 (stereo not drawn) [ARN16186, (endo)-3-(4-butylphenoxy)-8-[(3,5-dimethyl-1H-pyrazol-4-yl)sulfonyl]-8-azabicyclo[3.2.1.]octane]
IC50 (h-NAAA [1]): 0.023 ± 0.004 µM | IC50 (h-AC (Acid Ceramidase)): > 30 µM | IC50 [2]: > 30 µM | recovery in a dialysis test (h-NAAA [3]; after 24 h): ca. 30% | mode of inhibition (dialysis test) (h-NAAA [3]; after 24 h dialysis): partially reversible | mechanism of inhibition (h-NAAA [4]): non-covalent | mechanism of inhibition (h-NAAA [5]): non-covalent | dose with full effect on hyperalgesia and allodynia ([6]; p.o., single administration, readout 2 h after dosing): 10 mg/kg | mechanical hyperalgesia [6, 7]: reduce significantly | tactile allodynia [6, 7]: reduce significantly | thermal hyperalgesia [6, 7]: reduce significantly
